{
  "source": "patent US20040163143A1",
  "about": "“Method for efficiently producing transgenic plant using auxin precursor” (NIPPON PAPER INDUSTRIES CO., LTD., priority 2002, published 2004)",
  "key": {"[1]": {"test_system": "E. globulus hypocotyl sections", "test": "E. globulus gene introduction test, vector pIPT10 (ipt only + GUS), adventitious bud redifferentiation and GUS staining", "type": "cell-based, Eucalyptus globulus", "conditions": "for B/A Redifferentiation ratio / C/A Gene introduction ratio / C/B Selection efficiency: section basis", "method": "Seeds of E. globulus from Chile were sterilized by soaking in 70% ethanol for about 1 minute and then soaking with stirring in a 2% aqueous sodium hypochlorite solution for about 4 hours, washed thoroughly with sterile water, inoculated on an MS agar medium to which 0.5 mg/l zeatin had been added and stored in a refrigerator at 4° C. for 2 days to accelerate germination, and then the germination was carried out by culturing at 25° C. under light conditions of about 10 μmol/m^2/s in light intensity. One to two weeks after the inoculation of the seeds onto the germination medium, hypocotyls were collected by cutting out apical buds, cotyledons and roots of the germinated seedlings, and the hypocotyls were cut into sections of about 5 mm to be used as samples for gene introduction and subjected to the following test. A. tumefaciens EHA105 introduced with the plasmid pIAH6 in the above item I was cultured overnight in the YEB liquid medium and then diluted to OD630 =0.5 with EG basal medium, and the sections of hypocotyl prepared in the above were soaked in the cell suspension. Next, each of the sections after removing excess cell suspension was co-cultured with Agrobacterium on an agar medium (agar 8.5 g/l) prepared by adding 1.0 mg/l zeatin, 0.05 mg/l NAA and 40 mg/l acetosyringone to the EG basal medium, at 25° C. for 3 days in the dark to thereby infect each section with the pIAH6-introduced Agrobacterium. In this case, a modified MS medium having an ammonia nitrogen/nitrate nitrogen concentration ratio of 1:3 (5 mM NH4, 15 mM NO3) was supplemented with 20 g/l sucrose and used as the EG basal medium. The sections after infection culturing were put on an EG basal agar medium (agar 8.5 g/l) supplemented with 500 mg/l ticarcillin and 1 μM or 10 μM of an auxin precursor analogue NAM, and the culturing was continued at 25° C. under light conditions of 30 to 40 μmol/m^2/s in light intensity while sub-culturing at an interval of 2 weeks using the same medium. Among these sections, the quicker ones redifferentiated adventitious buds after about 2 months of the Agrobacterium infection. Three months after the Agrobacterium infection, in order to examine expression of the GUS gene used as a model of the desired gene, the redifferentiated adventitious buds were subjected to a GUS staining test in accordance with the method of Jefferson et al. (Plant Mol. Biol. Rep., 5: 387-405 (1987)), and the degree of formation of desired gene-introduced adventitious buds was judged by examining the number of stained adventitious buds (the number of adventitious buds expressing the desired gene). An E. globulus gene introduction test was carried out in the same manner as in Example 1, except that the hypocotyl sections after the Agrobacterium infection were cultured using the EG basal agar medium (agar 8.5 g/l) supplemented with 500 mg/l ticarcillin and 0 μM, 1 μM or 10 μM NAA as auxin. An E. globulus gene introduction test was carried out in the same manner as in Example 1 or Comparative Example 1, except that a plasmid pIPT10 having only the ipt gene as the selectable marker gene was used as the vector. Also, the vector also has the GUS gene as a model of the desired gene. Structure of T-DNA region of the pIPT10 used in this case is shown in FIG. 2, and results of the gene introduction test are shown in Table 3."}, "[2]": {"test_system": "E. globulus hypocotyl sections", "test": "E. globulus gene introduction test, vector pIAH6 (ipt + iaaH + GUS), adventitious bud redifferentiation and GUS staining", "type": "cell-based, Eucalyptus globulus", "conditions": "for B/A Redifferentiation ratio / C/A Gene introduction ratio / C/B Selection efficiency: section basis", "method": "Using a plasmid pIAH6 as a vector having a GUS gene as a model of a desired gene and an ipt gene and an iaaH gene as selectable marker genes, a transformant was produced by carrying out gene introduction into Eucalyptus globulus (hereinafter referred to as “E. globulus”) by the method of the present invention. Seeds of E. globulus from Chile were sterilized by soaking in 70% ethanol for about 1 minute and then soaking with stirring in a 2% aqueous sodium hypochlorite solution for about 4 hours, washed thoroughly with sterile water, inoculated on an MS agar medium to which 0.5 mg/l zeatin had been added and stored in a refrigerator at 4° C. for 2 days to accelerate germination, and then the germination was carried out by culturing at 25° C. under light conditions of about 10 μmol/m^2/s in light intensity. One to two weeks after the inoculation of the seeds onto the germination medium, hypocotyls were collected by cutting out apical buds, cotyledons and roots of the germinated seedlings, and the hypocotyls were cut into sections of about 5 mm to be used as samples for gene introduction and subjected to the following test. A. tumefaciens EHA105 introduced with the plasmid pIAH6 in the above item I was cultured overnight in the YEB liquid medium and then diluted to OD630 =0.5 with EG basal medium, and the sections of hypocotyl prepared in the above were soaked in the cell suspension. Next, each of the sections after removing excess cell suspension was co-cultured with Agrobacterium on an agar medium (agar 8.5 g/l) prepared by adding 1.0 mg/l zeatin, 0.05 mg/l NAA and 40 mg/l acetosyringone to the EG basal medium, at 25° C. for 3 days in the dark to thereby infect each section with the pIAH6-introduced Agrobacterium. In this case, a modified MS medium having an ammonia nitrogen/nitrate nitrogen concentration ratio of 1:3 (5 mM NH4, 15 mM NO3) was supplemented with 20 g/l sucrose and used as the EG basal medium. The sections after infection culturing were put on an EG basal agar medium (agar 8.5 g/l) supplemented with 500 mg/l ticarcillin and 1 μM or 10 μM of an auxin precursor analogue NAM, and the culturing was continued at 25° C. under light conditions of 30 to 40 μmol/m^2/s in light intensity while sub-culturing at an interval of 2 weeks using the same medium. Among these sections, the quicker ones redifferentiated adventitious buds after about 2 months of the Agrobacterium infection. Three months after the Agrobacterium infection, in order to examine expression of the GUS gene used as a model of the desired gene, the redifferentiated adventitious buds were subjected to a GUS staining test in accordance with the method of Jefferson et al. (Plant Mol. Biol. Rep., 5: 387-405 (1987)), and the degree of formation of desired gene-introduced adventitious buds was judged by examining the number of stained adventitious buds (the number of adventitious buds expressing the desired gene). An E. globulus gene introduction test was carried out in the same manner as in Example 1, except that the hypocotyl sections after the Agrobacterium infection were cultured using the EG basal agar medium (agar 8.5 g/l) supplemented with 500 mg/l ticarcillin and 0 μM, 1 μM or 10 μM NAA as auxin."}, "[3]": {"conditions": "NAA 1 μM in medium, 62 sections tested"}, "[4]": {"conditions": "NAA 10 μM in medium, 40 sections tested"}},
  "data": [
    {"smiles": "O=C(O)Cc1cccc2ccccc12", "note": "[NAA, naphthaleneacetic acid]", "values": [
      {"measurement": "B Adventitious bud differentiated (number of sections)", "setting": "[1]; additive 1 μM in medium", "value": "9 number of sections"},
      {"measurement": "C GUS + adventitious bud differentiated (number of sections)", "setting": "[1]; additive 1 μM in medium", "value": "1 number of sections"},
      {"measurement": "B/A Redifferentiation ratio", "setting": "[1]; additive 1 μM in medium", "value": 20.5, "unit": "%"},
      {"measurement": "C/A Gene introduction ratio", "setting": "[1]; additive 1 μM in medium", "value": 2.3, "unit": "%"},
      {"measurement": "C/B Selection efficiency", "setting": "[1]; additive 1 μM in medium", "value": 11.1, "unit": "%"},
      {"measurement": "B Adventitious bud differentiated (number of sections)", "setting": "[1]; additive 10 μM in medium", "value": "7 number of sections"},
      {"measurement": "C GUS + adventitious bud differentiated (number of sections)", "setting": "[1]; additive 10 μM in medium", "value": "0 number of sections"},
      {"measurement": "B/A Redifferentiation ratio", "setting": "[1]; additive 10 μM in medium", "value": 15.9, "unit": "%"},
      {"measurement": "C/A Gene introduction ratio", "setting": "[1]; additive 10 μM in medium", "value": 0.0, "unit": "%"},
      {"measurement": "C/B Selection efficiency", "setting": "[1]; additive 10 μM in medium", "value": 0, "unit": "%"},
      {"measurement": "B Adventitious bud differentiated (number of sections)", "setting": "[2]; [3]", "value": "9 number of sections"},
      {"measurement": "C GUS + adventitious bud differentiated (number of sections)", "setting": "[2]; [3]", "value": "2 number of sections"},
      {"measurement": "B/A Redifferentiation ratio", "setting": "[2]; NAA 1 μM in medium", "value": 14.5, "unit": "%"},
      {"measurement": "C/A Gene introduction ratio", "setting": "[2]; NAA 1 μM in medium", "value": 3.2, "unit": "%"},
      {"measurement": "C/B Selection efficiency", "setting": "[2]; NAA 1 μM in medium", "value": 22.2, "unit": "%"},
      {"measurement": "B Adventitious bud differentiated (number of sections)", "setting": "[2]; [4]", "value": "13 number of sections"},
      {"measurement": "C GUS + adventitious bud differentiated (number of sections)", "setting": "[2]; [4]", "value": "1 number of sections"},
      {"measurement": "B/A Redifferentiation ratio", "setting": "[2]; NAA 10 μM in medium", "value": 32.5, "unit": "%"},
      {"measurement": "C/A Gene introduction ratio", "setting": "[2]; NAA 10 μM in medium", "value": 2.5, "unit": "%"},
      {"measurement": "C/B Selection efficiency", "setting": "[2]; NAA 10 μM in medium", "value": 7.7, "unit": "%"}
    ]}
  ]
}
